From patent publication US11813306B2, “Cyclic tetramer compounds as proprotein convertase subtilisin/kexin type 9 (PCSK9) inhibitors for the treatment of metabolic disorders” (NOVARTIS AG, priority 2018, dated 2023)

Biological target: human PCSK9 (Homo sapiens, UniProt Q8NBP7)
Assay: PCSK9 ligand binding assay (TR-FRET): interference with binding of human PCSK9 to human LDLR
Conditions: for IC50: Human PCSK9 Alexa Fluor 647 / Human LDLR extracellular domain-Europium Kryptate; for Max % inhibition: efficacy (Amax), 100% = 1 uM unlabeled human PCSK9, 0% = DMSO
Method: Example 10: PCSK9 Ligand Binding Assay
The PCSK9 binding of the compounds of the disclosure were measured using a time resolved fluorescence resonance energy transfer (TR-FRET) assay. This time resolved fluorescence resonance energy transfer (TR-FRET) assay measures the ability of a compound of the present disclosure to interfere with the binding of human PCSK9 to human LDLR, providing measures of both potency (IC50) and efficacy (Amax).
Human PCSK9 Alexa Fluor 647
Human LDLR extracellular domain-Europium Kryptate
Proxi plate-low volume assay plate (PerkinElmer #6008280)
Greiner V-bottom (Greiner BioOne #781280)
Assay Buffer • 20 mM HEPES, pH 7.5 • 150 mM NaCl • 1 mM CaCl2 • 0.01% v/v Tween20 • 0.01% w/v BSA
A master compound plate was prepared in a Greiner V bottom plate by diluting compounds of the disclosure in dimethylsulfoxide to the correct concentration for the desired top concentration based on the desired final concentration: for a 30 uM final concentration the master plate concentration is 1.5 mM (68 uL DMSO+12 uL 10 mM of a compound of the disclosure), for a 10 uM final concentration the master plate concentration is 0.5 mM (76 uL DMSO+4 uL 10 mM of a compound of the disclosure), for a 3 uM final concentration the master plate concentration is 150 uM (69 uL DMSO+1 uL 10 mM of a compound of the disclosure). These solutions were pipetted into columns 1 and 11 of the compound plate. Threefold serial dilutions were generated in columns 2-10 and 12-20 of the compound plate by transferring 10 uL into 20 uL of DMSO. Columns 21 and 22 of the compound plate were negative controls containing DMSO alone.
An intermediate plate was generated in a Greiner V bottom plate by transferring 8 uL from each well of the master plate into a corresponding well containing 92 uL of assay buffer and mixing thoroughly.
A Proxi plate-low volume assay plate was used for the assay. To all wells of the plate was added 10 uL of 16 nM Human PCSK9 Alexa Fluor 647, followed by 5 uL from the intermediate plate. For the positive control wells in columns 23 and 24 of the plate, 5 uL of unlabeled human PCSK9 was added at 4 uM in assay buffer containing 8% DMSO. Following a 30 minute incubation, 5 uL of 4 nM Human LDLR extracellular domain-Europium Kryptate was added and the mixture was incubated for an additional 2 hours.
The TR-FRET signal was measured on an EnVision or PheraStar instrument with a 60 ms delay, 330 nm excitation and 665 nm emission (FRET), and 330 nm excitation and 615 nm (Europium). The FRET ratio (FRET/Europium) was used for calculations.
No inhibition (0%) was observed from the wells containing DMSO (Control) in columns 21 and 22 of the compound plate. Full inhibition (100%) was observed from the wells containing 1 uM human PCSK9 (Control) in columns 23 and 24 of the plate. Data is expressed as percent inhibition: (value—0%)/(100%-0%).

Sequence of human PCSK9 (Q8NBP7 153-692): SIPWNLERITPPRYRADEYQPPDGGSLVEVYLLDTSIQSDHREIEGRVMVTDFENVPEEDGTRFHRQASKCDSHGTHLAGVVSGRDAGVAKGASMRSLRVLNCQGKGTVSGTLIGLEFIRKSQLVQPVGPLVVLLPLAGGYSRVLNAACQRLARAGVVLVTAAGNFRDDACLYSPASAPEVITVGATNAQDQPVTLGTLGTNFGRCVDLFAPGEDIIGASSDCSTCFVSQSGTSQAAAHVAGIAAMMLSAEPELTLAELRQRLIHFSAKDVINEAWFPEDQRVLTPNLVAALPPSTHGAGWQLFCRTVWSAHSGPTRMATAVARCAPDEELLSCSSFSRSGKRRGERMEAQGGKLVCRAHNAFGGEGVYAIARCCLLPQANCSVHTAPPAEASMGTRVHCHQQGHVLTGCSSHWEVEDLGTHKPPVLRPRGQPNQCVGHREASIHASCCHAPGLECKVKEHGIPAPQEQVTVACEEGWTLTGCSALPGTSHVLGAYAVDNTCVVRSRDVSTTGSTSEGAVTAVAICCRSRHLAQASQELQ
Sequence of human PCSK9 (Q8NBP7 31-152 partner limits assumed): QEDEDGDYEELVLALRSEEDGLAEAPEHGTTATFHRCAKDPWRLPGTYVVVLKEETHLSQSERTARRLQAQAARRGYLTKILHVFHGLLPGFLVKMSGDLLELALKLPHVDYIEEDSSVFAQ

Structure (SMILES)	IC50	Max % inhibition
C[C@H]1C(=O)N[C@@H](CO)C(=O)N(C)[C@@]2(Cc3ccc(Cl)cc3)CCCN(C2)C(=O)[C@H](CC(F)(F)F)CC(=O)N1Cc1c(F)cc(Cl)cc1Oc1ccc(-c2cnc(CN(C)C)n2C)cc1 [Compound 82, (3S,7S,10S,13R)-6-(4-Chloro-2-(4-(2-((dimethylamino)methyl)-1-methyl-1H-imidazol-5-yl)phenoxy)-6-fluorobenzyl)-13-(4-chlorobenzyl)-10-(hydroxymethyl)-7,12-dimethyl-3-(2,2,2-trifluoroethyl)-1,6,9,12-tetraazabicyclo[11.3.1]heptadecane-2,5,8,11-tetraone]	0.37 nM	108.5%
COC[C@@H]1NC(=O)[C@H](CCF)N(Cc2ccc(Cl)cc2Oc2ccc(-c3cnc(CN(C)C)n3C)cc2)C(=O)C[C@@H](Cc2ccccc2)C(=O)N2CCC[C@@](Cc3ccc(Cl)cc3)(C2)NC1=O.Cl [Compound 105, (3R,7S,10S,13R)-3-benzyl-6-(4-chloro-2-(4-(2-((dimethylamino)methyl)-1-methyl-1H-imidazol-5-yl)phenoxy)benzyl)-13-(4-chlorobenzyl)-7-(2-fluoroethyl)-10-(methoxymethyl)-1,6,9,12-tetraazabicyclo[11.3.1]heptadecane-2,5,8,11-tetraone hydrochloride]	6.12 nM	97.0%
C[C@H](c1ncc(-c2ccc(Oc3cc(Cl)ccc3CN3C(=O)C[C@@H]([C@@H]4CCc5ccccc54)C(=O)N4CCC[C@@](Cc5ccc(Cl)cc5)(C4)NC(=O)[C@H](CO)NC(=O)[C@@H]3C)cc2)n1C)N(C)C.Cl [Compound 70, (3S, 7S,10S, 13R)-6-(4-chloro-2-(4-(2-((R)-1-(dimethylamino)ethyl)-1-methyl-1H-imidazol-5-yl)phenoxy)benzyl)-13-(4-chlorobenzyl)-3-((S)-2,3-dihydro-1H-inden-1-yl)-10-(hydroxymethyl)-7-methyl-1,6,9,12-tetraazabicyclo[11.3.1]heptadecane-2,5,8,11-tetraone]	1.48 nM	110.7%
COC[C@@H]1NC(=O)[C@H](C)N(Cc2c(F)cc(Cl)cc2Oc2ccc(-c3cnc(CN)n3C)cc2)C(=O)C[C@@H](C2CC(F)(F)C2)C(=O)N2CCC[C@@](Cc3ccc(Cl)cc3)(C2)N(C)C1=O [Compound 166, (3S, 7S, 10S, 13R)-6-(2-(4-(2-(aminomethyl)-1-methyl-1H-imidazol-5-yl)phenoxy)-4-chloro-6-fluorobenzyl)-13-(4-chlorobenzyl)-3-(3,3-difluorocyclobutyl)-10-(methoxymethyl)-7,12-dimethyl-1,6,9,12-tetraazabicyclo[11.3.1]heptadecane-2,5,8,11-tetraone]	0.74 nM	98.1%
COC[C@@H]1NC(=O)[C@H](C)N(Cc2c(F)cc(Cl)cc2Oc2ccc(-c3cnc(CN(C)C(C)(C)C)n3C)cc2)C(=O)C[C@@H](C2CC(F)(F)C2)C(=O)N2CCC[C@@](Cc3ccc(Cl)cc3)(C2)N(C)C1=O [Compound 169, (3S, 7S, 10S, 13R)-6-(2-(4-(2-((tert-butyl(methyl)amino)methyl)-1-methyl-1H-imidazol-5-yl)phenoxy)-4-chloro-6-fluorobenzyl)-13-(4-chlorobenzyl)-3-(3,3-difluorocyclobutyl)-10-(methoxymethyl)-7,12-dimethyl-1,6,9,12-tetraazabicyclo[11.3.1]heptadecane-2,5,8,11-tetraone]	0.85 nM	113.1%
C[C@H]1C(=O)N[C@@H](CO)C(=O)N[C@@]2(Cc3ccc(Cl)cc3)CCCN(C2)C(=O)[C@H](Cc2ccccc2)CC(=O)N1Cc1c(F)cc(F)cc1Oc1ccc(-c2cnc(CN3CCCC3)n2C)cc1 [Compound 75, (3R, 7S, 10S, 13R)-3-benzyl-13-(4-chlorobenzyl)-6-(2,4-difluoro-6-(4-(1-methyl-2-(pyrrolidin-1-ylmethyl)-1H-imidazol-5-yl)phenoxy)benzyl)-10-(hydroxymethyl)-7-methyl-1,6,9,12-tetraazabicyclo[11.3.1]heptadecane-2,5,8,11-tetraone]	0.758 nM	113.3%
COC[C@@H]1NC(=O)[C@H](C)N(Cc2c(F)cc(Cl)cc2Oc2ccc(-c3cnc(CN(C)C)n3C)cc2)C(=O)C[C@@H](C2CCOCC2)C(=O)N2CCC[C@@](Cc3ccc(Cl)cc3)(C2)N(C)C1=O [Compound 174, (3S, 7S, 10S, 13R)-6-(4-chloro-2-(4-(2-((dimethylamino)methyl)-1-methyl-1H-imidazol-5-yl)phenoxy)-6-fluorobenzyl)-13-(4-chlorobenzyl)-10-(methoxymethyl)-7,12-dimethyl-3-(tetrahydro-2H-pyran-4-yl)-1,6,9,12-tetraazabicyclo[11.3.1]heptadecane-2,5,8,11-tetraone]	2.2 nM	110.7%
C[C@H]1C(=O)N[C@@H](CO)C(=O)N[C@@]2(Cc3ccc(Cl)cc3)CCCN(C2)C(=O)[C@H](Cc2ccccc2)CC(=O)N1Cc1c(Cl)cc(Cl)cc1Oc1ccc(-c2cnc(CN(C)C)n2C)cc1 [Compound 98, (3R, 7S, 10S, 13R)-3-benzyl-13-(4-chlorobenzyl)-6-(2,4-dichloro-6-(4-(2-((dimethylamino)methyl)-1-methyl-1H-imidazol-5-yl)phenoxy)benzyl)-10-(hydroxymethyl)-7-methyl-1,6,9,12-tetraazabicyclo+11.3.111-tetraone]	2.41 nM	108.6%
C[C@H]1C(=O)N[C@@H](CO)C(=O)N(C)[C@H](Cc2ccc(Cl)cc2)CN(C)C(=O)[C@H](Cc2ccccc2)CC(=O)N1Cc1ccc(Cl)cc1Oc1cc(F)c(-c2cnc(CN3CCCC3)n2C)c(F)c1.Cl [Compound 106, (2S, 5S, 8R, 12R)-12-benzyl-1-(4-chloro-2-(3,5-difluoro-4-(1-methyl-2-(pyrrolidin-1-ylmethyl)-1H-imidazol-5-yl)phenoxy)benzyl)-8-(4-chlorobenzyl)-5-(hydroxymethyl)-2,7,10-trimethyl-1,4,7,10-tetraazacyclotetradecane-3,6,11,14-tetraone]	8.52 nM	105.1%
COC[C@@H]1NC(=O)[C@H](C)N(Cc2ccc(Cl)cc2Oc2ccc(-c3cnc(CN4CCCC4)n3C)cc2)C(=O)C[C@@H]([C@H]2CCc3ccccc32)C(=O)N(CCC(F)F)C[C@@H](Cc2ccc(Cl)cc2)N(C)C1=O.Cl [Compound 113]	21.6 nM	102.5%
C[C@@H](O)[C@@H]1NC(=O)[C@H](C)N(Cc2ccc(Cl)cc2Oc2ccc(-c3cnc(CN(C)C)n3C)cc2)C(=O)C[C@@H](CC(F)(F)F)C(=O)N2CCC[C@@](Cc3ccc(Cl)cc3)(C2)NC1=O [Compound 97, (3S, 7S, 10S, 13R)-6-(4-chloro-2-(4-(2-((dimethylamino)methyl)-1-methyl-1H-imidazol-5-yl)phenoxy)benzyl)-13-(4-chlorobenzyl)-10-((R)-1-hydroxyethyl)-7-methyl-3-(2,2,2-trifluoroethyl)-1,6,9,12-tetraazabicyclo[11.3.1]heptadecane-2,5,8,1-tetraone]	2.08 nM	91.2%
COC[C@@H]1NC(=O)[C@H](C)N(Cc2ccc(Cl)cc2Oc2ccc(-c3cnc(CN(C)C)n3C)cc2)C(=O)C[C@@H](Cc2cccc(C)n2)C(=O)N2CCC[C@@](Cc3ccc(Cl)cc3)(C2)NC1=O [Compound 4, (3R,7S,10S,13R)-6-(4-Chloro-2-(4-(2-((dimethylamino)methyl)-1-methyl-1H-imidazol-5-yl)phenoxy)benzyl)-13-(4-chlorobenzyl)-10-(methoxymethyl)-7-methyl-3-((6-methylpyridin-2-yl)methyl)-1,6,9,12-tetraazabicyclo[11.3.1]heptadecane-2,5,8,11-tetraone]	0.558 nM	106.4%
C[C@H]1C(=O)N[C@@H](CO)C(=O)N[C@@]2(Cc3ccc(Cl)cc3)CCCN(C2)C(=O)[C@H](Cc2cccnc2)CC(=O)N1Cc1ccc(Cl)cc1Oc1ccc(-c2cnc(CN3CCOCC3)n2C)cc1.Cl [Compound 47, (3R, 7S, 10S, 13R)-6-(4-chloro-2-(4-(1-methyl-2-(morpholinomethyl)-1H-imidazol-5-yl)phenoxy)benzyl)-13-(4-chlorobenzyl)-10-(hydroxymethyl)-7-methyl-3-(pyridin-3-ylmethyl)-1,6,9,12-tetraazabicyclo[11.3.1]heptadecane-2,5,8,11-tetraone]	0.82 nM	97.0%
